Source: patent publication US10582709B2, “Butyrolactones as herbicides” (FMC Corporation, priority 2015, dated 2020)

The compounds below were run on wheat (Triticum aestivum) (assay: Test A postemergence, wheat). Conditions: 125 g ai/ha, visual rating after approx. 10 d, 0 to 100 scale, 0 no effect, 100 complete control.
Format: in vivo
From the text: (§1) Seeds of plant species selected from barnyardgrass (Echinochloa crus-galli), crabgrass (large crabgrass, Digitaria sanguinalis), kochia (Kochia scoparia), ragweed (common ragweed, Ambrosia elatior), morningglory (Ipomoea spp.), velvetleaf (Abutilon theophrasti), ryegrass, Italian (Italian ryegrass, Lolium multiflorum), foxtail, giant (giant foxtail, Setaria faberii), wheat (Triticum aestivum), corn (Zea mays), and pigweed (Amaranthus retroflexus), were planted into a blend of loam soil and sand and treated preemergence with a directed soil spray using test chemicals formulated in a non-phytotoxic solvent mixture which included a surfactant. At the same time, plants selected from these crop and weed species and also blackgrass (Alopecurus myosuroides), and galium (catchweed bedstraw, Galium aparine), were planted in pots containing the same blend of loam soil and sand and treated with postemergence applications of test chemicals formulated in the same manner. Plants ranged in height from 2 to 10 cm and were in the one- to two-leaf stage for the postemergence treatment. Treated plants and untreated controls were maintained in a greenhouse for approximately 10 d, after which time all treated plants were compared to untreated controls and visually evaluated for injury. Plant response ratings, summarized in Table A, are based on a 0 to 100 scale where 0 is no effect and 100 is complete control. A dash (-) response means no test result.

SMILES	Plant response rating, Wheat
O=C(Nc1ccccc1C(F)(F)F)C1C(=O)OCC1c1ccc(C(F)(F)F)cc1 (racemic) [Compound 9]	0

Same assay, conditions: 500 g ai/ha, visual rating after approx. 10 d, 0 to 100 scale, 0 no effect, 100 complete control

SMILES	Plant response rating, Wheat
O=C(Nc1ccccc1C(F)(F)F)C1C(=O)OCC1c1ccc(C(F)(F)F)cc1 (racemic) [Compound 9]	0

These compounds were tested on foxtail, giant (giant foxtail, Setaria faberii) (assay: Test A postemergence, giant foxtail). Conditions: 125 g ai/ha, visual rating after approx. 10 d, 0 to 100 scale, 0 no effect, 100 complete control.
Format: in vivo
From the text: as §1

SMILES	Plant response rating, Foxtail, Giant
O=C(Nc1ccccc1C(F)(F)F)C1C(=O)OCC1c1ccc(C(F)(F)F)cc1 (racemic) [Compound 9]	30

Same assay, conditions: 500 g ai/ha, visual rating after approx. 10 d, 0 to 100 scale, 0 no effect, 100 complete control

SMILES	Plant response rating, Foxtail, Giant
O=C(Nc1ccccc1C(F)(F)F)C1C(=O)OCC1c1ccc(C(F)(F)F)cc1 (racemic) [Compound 9]	70

The compounds below were run on ducksalad (Heteranthera limosa) (assay: Test B flooded paddy test, ducksalad). Conditions: 250 g ai/ha; applied to paddy water at 2-leaf stage; 13 to 15 d; scale 0 no effect to 100 complete control.
Format: in vivo
Procedure: (§2) Plant species in the flooded paddy test selected from rice (Oryza sativa), sedge, umbrella (small-flower umbrella sedge, Cyperus difformis), ducksalad (Heteranthera limosa), and barnyardgrass (Echinochloa crus-galli) were grown to the 2-leaf stage for testing. At time of treatment, test pots were flooded to 3 cm above the soil surface, treated by application of test compounds directly to the paddy water, and then maintained at that water depth for the duration of the test. Treated plants and controls were maintained in a greenhouse for 13 to 15 d, after which time all species were compared to controls and visually evaluated. Plant response ratings, summarized in Table B, are based on a scale of 0 to 100 where 0 is no effect and 100 is complete control. A dash (-) response means no test result.

SMILES	Plant response rating, Flood, Ducksalad
O=C(Nc1ccccc1C(F)(F)F)C1C(=O)OCC1c1ccc(C(F)(F)F)cc1 (racemic) [Compound 9]	30

Same assay, conditions: 1000 g ai/ha; applied to paddy water at 2-leaf stage; 13 to 15 d; scale 0 no effect to 100 complete control

SMILES	Plant response rating, Flood, Ducksalad
O=C(Nc1ccccc1C(F)(F)F)C1C(=O)OCC1c1ccc(C(F)(F)F)cc1 (racemic) [Compound 9]	30

These compounds were tested on barnyardgrass (Echinochloa crus-galli) (assay: Test B flooded paddy test, barnyardgrass). Conditions: 250 g ai/ha; applied to paddy water at 2-leaf stage; 13 to 15 d; scale 0 no effect to 100 complete control.
Format: in vivo
Procedure: as §2

SMILES	Plant response rating, Flood, Barnyardgrass
O=C(Nc1ccccc1C(F)(F)F)C1C(=O)OCC1c1ccc(C(F)(F)F)cc1 (racemic) [Compound 9]	0

Same assay, conditions: 1000 g ai/ha; applied to paddy water at 2-leaf stage; 13 to 15 d; scale 0 no effect to 100 complete control

SMILES	Plant response rating, Flood, Barnyardgrass
O=C(Nc1ccccc1C(F)(F)F)C1C(=O)OCC1c1ccc(C(F)(F)F)cc1 (racemic) [Compound 9]	0

Each compound was assayed on ryegrass, Italian (Italian ryegrass, Lolium multiflorum) (assay: Test A preemergence, Italian ryegrass). Conditions: 125 g ai/ha, visual rating after approx. 10 d, 0 to 100 scale, 0 no effect, 100 complete control.
Format: in vivo
From the text: as §1

SMILES	Plant response rating, Ryegrass, Italian
O=C(Nc1ccccc1C(F)(F)F)C1C(=O)OCC1c1ccc(C(F)(F)F)cc1 (racemic) [Compound 9]	0

Same assay, conditions: 500 g ai/ha, visual rating after approx. 10 d, 0 to 100 scale, 0 no effect, 100 complete control

SMILES	Plant response rating, Ryegrass, Italian
O=C(Nc1ccccc1C(F)(F)F)C1C(=O)OCC1c1ccc(C(F)(F)F)cc1 (racemic) [Compound 9]	20

Each compound was assayed on barnyardgrass (Echinochloa crus-galli) (assay: Test A postemergence, barnyardgrass). Conditions: 125 g ai/ha, visual rating after approx. 10 d, 0 to 100 scale, 0 no effect, 100 complete control.
Format: in vivo
From the text: as §1

SMILES	Plant response rating, Barnyardgrass
O=C(Nc1ccccc1C(F)(F)F)C1C(=O)OCC1c1ccc(C(F)(F)F)cc1 (racemic) [Compound 9]	0

Same assay, conditions: 500 g ai/ha, visual rating after approx. 10 d, 0 to 100 scale, 0 no effect, 100 complete control

SMILES	Plant response rating, Barnyardgrass
O=C(Nc1ccccc1C(F)(F)F)C1C(=O)OCC1c1ccc(C(F)(F)F)cc1 (racemic) [Compound 9]	0

The compounds below were run on kochia (Kochia scoparia) (assay: Test A postemergence, kochia). Conditions: 125 g ai/ha, visual rating after approx. 10 d, 0 to 100 scale, 0 no effect, 100 complete control.
Format: in vivo
From the text: as §1

SMILES	Plant response rating, Kochia
O=C(Nc1ccccc1C(F)(F)F)C1C(=O)OCC1c1ccc(C(F)(F)F)cc1 (racemic) [Compound 9]	0

Same assay, conditions: 500 g ai/ha, visual rating after approx. 10 d, 0 to 100 scale, 0 no effect, 100 complete control

SMILES	Plant response rating, Kochia
O=C(Nc1ccccc1C(F)(F)F)C1C(=O)OCC1c1ccc(C(F)(F)F)cc1 (racemic) [Compound 9]	0

What follows are compounds tested on ryegrass, Italian (Italian ryegrass, Lolium multiflorum) (assay: Test A postemergence, Italian ryegrass). Conditions: 125 g ai/ha, visual rating after approx. 10 d, 0 to 100 scale, 0 no effect, 100 complete control.
Format: in vivo
From the text: as §1

SMILES	Plant response rating, Ryegrass, Italian
O=C(Nc1ccccc1C(F)(F)F)C1C(=O)OCC1c1ccc(C(F)(F)F)cc1 (racemic) [Compound 9]	0

Same assay, conditions: 500 g ai/ha, visual rating after approx. 10 d, 0 to 100 scale, 0 no effect, 100 complete control

SMILES	Plant response rating, Ryegrass, Italian
O=C(Nc1ccccc1C(F)(F)F)C1C(=O)OCC1c1ccc(C(F)(F)F)cc1 (racemic) [Compound 9]	0

Each compound was assayed on pigweed (Amaranthus retroflexus) (assay: Test A preemergence, pigweed). Conditions: 125 g ai/ha, visual rating after approx. 10 d, 0 to 100 scale, 0 no effect, 100 complete control.
Format: in vivo
From the text: as §1

SMILES	Plant response rating, Pigweed
O=C(Nc1ccccc1C(F)(F)F)C1C(=O)OCC1c1ccc(C(F)(F)F)cc1 (racemic) [Compound 9]	0

Same assay, conditions: 500 g ai/ha, visual rating after approx. 10 d, 0 to 100 scale, 0 no effect, 100 complete control

SMILES	Plant response rating, Pigweed
O=C(Nc1ccccc1C(F)(F)F)C1C(=O)OCC1c1ccc(C(F)(F)F)cc1 (racemic) [Compound 9]	0

Each compound was assayed on galium (catchweed bedstraw, Galium aparine) (assay: Test A postemergence, galium). Conditions: 125 g ai/ha, visual rating after approx. 10 d, 0 to 100 scale, 0 no effect, 100 complete control.
Format: in vivo
From the text: as §1

SMILES	Plant response rating, Galium
O=C(Nc1ccccc1C(F)(F)F)C1C(=O)OCC1c1ccc(C(F)(F)F)cc1 (racemic) [Compound 9]	0

Same assay, conditions: 500 g ai/ha, visual rating after approx. 10 d, 0 to 100 scale, 0 no effect, 100 complete control

SMILES	Plant response rating, Galium
O=C(Nc1ccccc1C(F)(F)F)C1C(=O)OCC1c1ccc(C(F)(F)F)cc1 (racemic) [Compound 9]	0
